Chromatographic logP and log p data for 63 compounds are collected here from patent US8466176B2 (priority 2008, dated 2013).

A short description of the first data set: logP(HCOOH) reported with HPLC/MS. The following applies: HCOOH (formic acid), logP(HCOOH), HPLC/MS.
The compound `CCCCCC(=O)NCc1cccc(CON=C(c2ccccc2)c2nnnn2C)n1` [Example 53, N-({6-[({[(1-methyl-1H-tetrazol-5-yl)(phenyl)methylene]amino}oxy)methyl]pyridin-2-yl}methyl)hexanamide] came in with a chromatographic logP of 2.88.
Same read-out and setting: as for `CSc1cccc(C(=O)c2nnnn2C)c1` [[3-(methylsulfanyl)phenyl](1-methyl-1H-tetrazol-5-yl)methanone], the figure is 2.52.

Still in this data set, the particulars now being: HPLC/MS, logP(HCOOH).
Take `CCCCCSc1cccc(CON=C(c2ccccc2)c2nnnn2C)n1` [Example 74, 1-(1-methyl-1H-tetrazol-5-yl)-N-{[6-(pentylsulfanyl)pyridin-2-yl]methoxy}-1-phenylmethanimine]: the chromatographic logP is 5.97.

The data set is the same for the next values; noted with them: formic acid (HCOOH), logP(HCOOH), HPLC/MS.
`Cn1nnnc1C(=NOCc1csc(NCCC2CCCCC2)n1)c1ccccc1` [Example 161, N-(2-cyclohexylethyl)-4-[({[(1-methyl-1H-tetrazol-5-yl)(phenyl)methylene]amino}oxy)methyl]-1,3-thiazol-2-amine] yielded a chromatographic logP of 3.62.

Staying with this data set, now noted: logP(HCOOH), HPLC/MS.
Turning to `CCCCCCOc1cccc(CON=C(c2ccccc2)c2nnnn2C)n1` [Example 20, N-{[6-(hexyloxy)pyridin-2-yl]methoxy}-1-(1-methyl-1H-tetrazol-5-yl)-1-phenylmethanimine], the chromatographic logP turned out to be 5.39.
`CC(C)(C)OC(=O)Nc1cccc(C=O)n1` [tert-butyl (6-formylpyridin-2-yl)carbamate] yielded a chromatographic logP of 2.44.

The same data set, now with this note: method [a]: HPLC on reversed phase columns, pH 2.3 with 0.1% phosphoric acid and acetonitrile as eluent.
Turning to `Cn1nnnc1C(=NOCc1csc(C#C[Si](C)(C)C)n1)c1ccccc1` [Example 138], the log p is 4.59^[a].

Still in this data set, the particulars now being: method [b]: LC-MS at pH 2.7, 0.1% formic acid in water and acetonitrile, linear gradient 10% to 95% acetonitrile.
For `C#Cc1cccc(CON=C(c2ccccc2)c2nnnn2C)n1` [Example 19], the log p was 2.7^[b].
Same read-out and setting: under `Cn1nnnc1C(=NOCc1nc(C#CCOc2ccccc2)sc1Cl)c1ccccc1` [Example 119] stands 4.62^[b].
Still for that read-out and setting: under `COc1ccc(CON=C(c2ccccc2)c2nnnn2C)nc1C#CCC1CCCC1` [Example 128] stands 4.46^[b]; under `Cn1nnnc1C(=NOCc1nc(C#CC2CCCCC2)ccc1F)c1ccccc1` [Example 108], 4.92^[b].

The same data set, now with this note: method [b]: LC-MS, pH 2.7 with 0.1% formic acid in water and acetonitrile (0.1% formic acid), linear gradient 10% to 95% acetonitrile.
Consider `COc1ccccc1C#Cc1cccc(CON=C(c2ccccc2)c2nnnn2C)n1` [Example 222], for which the log p is 3.89^[b].
For the compound `Cn1nnnc1C(=NOCc1cccc(C#CCCCCl)n1)c1ccccc1` [Example 212], the log p is 3.71^[b].
As to `Cn1nnnc1C(=NOCc1csc(C#CCCO)n1)c1ccccc1` [Example 198], the log p is 2.3^[b].
Same read-out and setting: as for `Cn1nnnc1C(=NOCc1cccc(C#CCCC2CCCCC2)n1)c1ccccc1` [Example 237], the figure is 5.62^[b]; as for `CCCOC(C)(C)C#Cc1cccc(CON=C(c2ccccc2)c2nnnn2C)n1` [Example 241], 4.31^[b].

Still in this data set, the particulars now being: reversed phase HPLC column, pH 2.7, log p, method [b]: LC-MS at pH 2.7, 0.1% formic acid in water and acetonitrile, linear gradient 10% to 95% acetonitrile.
Take `CCCCCC(=O)NCc1cccc(CON=C(c2ccccc2)c2nnnn2C)n1` [Example 53, N-({6-[({[(1-methyl-1H-tetrazol-5-yl)(phenyl)methylene]amino}oxy)methyl]pyridin-2-yl}methyl)hexanamide]: the chromatographic logP came to 2.88.

The data set is the same for the next values; noted with them: reversed phase HPLC column, pH 2.7, log p, method [b]: LC-MS, pH 2.7 with 0.1% formic acid in water and acetonitrile (0.1% formic acid), linear gradient 10% to 95% acetonitrile.
`Cn1nnnc1C(=NOCc1csc(NCCC2CCCCC2)n1)c1ccccc1` [Example 161, N-(2-cyclohexylethyl)-4-[({[(1-methyl-1H-tetrazol-5-yl)(phenyl)methylene]amino}oxy)methyl]-1,3-thiazol-2-amine] showed a chromatographic logP of 3.62.

A short description of another data set: logP by HPLC on reversed phase columns, method [a], pH 2.3 with 0.1% phosphoric acid and acetonitrile. The class given is physicochemical. The following applies: method [a]: pH 2.3, 0.1% phosphoric acid and acetonitrile as eluent; EEC directive 79/831 Annex V.A8, reversed phase HPLC.
In the case of `Cn1nnnc1C(=NOCc1cccc(C#CC(C)(C)C)n1)c1ccccc1` [Example 22], the log p was 4.19^[a].
Still for that read-out and setting: as for `Cn1nnnc1C(=NOCc1csc(C#CCCCc2ccccc2)n1)c1ccccc1` [Example 62], the figure is 4.78^[a]; as for `Cn1nnnc1C(=NOCc1cccc(C#CC[Si](C)(C)C)n1)c1ccccc1` [Example 26], 4.61^[a]; as for `CCCCC#Cc1nc(CON=C(c2ccccc2)c2nnnn2C)cs1` [Example 72], 4.36^[a].
The same measure, in the same setting: as for `Cn1nnnc1C(=NOCc1cccc(-c2cccc(C(F)(F)F)c2)n1)c1ccccc1` [Example 45], the figure is 4.56^[a].
Turning to `Cn1nnnc1C(=NOCc1cccc(C#Cc2ccccc2)n1)c1ccccc1` [Example 25], the log p is 4.04^[a].
Same read-out and setting: as for `CCCCCC/C=C/c1cccc(CON=C(c2ccccc2)c2nnnn2C)n1` [Example 92], the figure is 5.5^[a].
Same read-out and setting: as for `Cn1nnnc1C(=NOCc1cccc(C(F)(F)C(F)(F)C(F)(F)C(F)(F)C(F)(F)C(F)(F)C(F)(F)F)n1)c1ccccc1` [Example 73], the figure is 5.86^[a]; as for `Cn1nnnc1C(=NOCc1cccc(-c2ccc(-c3ccccc3)cc2)n1)c1ccccc1` [Example 35], 5.05^[a].
As to `CC(C)CCC#Cc1nc(CON=C(c2ccccc2)c2nnnn2C)cs1` [Example 65], the log p is 4.75^[a].
The same measure, in the same setting: as for `Cn1nnnc1C(=NOCc1cccc(-c2ccc(C(F)(F)F)cc2)n1)c1ccccc1` [Example 34], the figure is 4.62^[a]; as for `Cn1nnnc1C(=NOCc1cccc(-c2cccc(CON=C(c3ccccc3)c3nnnn3C)n2)n1)c1ccccc1` [Example 21], 4.36^[a]; as for `CCCCOc1ccc(-c2cccc(CON=C(c3ccccc3)c3nnnn3C)n2)cc1` [Example 39], 5.2^[a].
The same measure, in the same setting: under `Cn1nnnc1C(=NOCc1csc(N2CCCCC2)n1)c1ccccc1` [Example 49] stands 3.39^[a]; under `CCCCCCN(C)c1nc(CON=C(c2ccccc2)c2nnnn2C)cs1` [Example 50], 4.56^[a].
Still for that read-out and setting: as for `COc1cccc(/C=C/c2cccc(CON=C(c3ccccc3)c3nnnn3C)n2)c1` [Example 87], the figure is 4.14^[a]; as for `CCCC(C)C#Cc1nc(CON=C(c2ccccc2)c2nnnn2C)cs1` (centres unmarked) [Example 64], 4.78^[a].
For `Cn1nnnc1C(=NOCc1cccc(/C=C/c2cc(F)cc(F)c2)n1)c1ccccc1` [Example 95], the log p is 4.49^[a].
The same measure, in the same setting: under `Cn1nnnc1C(=NOCc1csc(/C=C/C2CCCCC2)n1)c1ccccc1` [Example 89] stands 5.14^[a]; under `CCCCC/C=C/c1nc(CON=C(c2ccccc2)c2nnnn2C)cs1` [Example 81], 5.05^[a]; under `Cn1nnnc1C(=NOCc1cccc(-c2ccc(OCc3ccccc3)cc2)n1)c1ccccc1` [Example 36], 4.89^[a].
In the case of `Cn1nnnc1C(=NOCc1cccc(/C=C/c2cccc(F)c2)n1)c1ccccc1` [Example 91], the log p was 4.29^[a].
On to `CCCCC/C=C/c1cccc(CON=C(c2ccccc2)c2nnnn2C)n1` [Example 90], for which the log p was 5^[a].
Regarding `Cn1nnnc1C(=NOCc1cccc(C#CC2CCCCC2)n1)c1ccccc1` [Example 30], the log p was 4.77^[a].
The same measure, in the same setting: as for `Cn1nnnc1C(=NOCc1csc(C#CCC2CCCC2)n1)c1ccccc1` [Example 66], the figure is 4.92^[a]; as for `Cn1nnnc1C(=NOCc1csc(C#CC2CCCCC2)n1)c1ccccc1` [Example 68], 4.89^[a].
The same measure, in the same setting: under `Cn1nnnc1C(=NOCc1cccc(/C=C/Cc2ccccc2)n1)c1ccccc1` [Example 94] stands 4.31^[a]; under `COCCCN(C)c1nc(CON=C(c2ccccc2)c2nnnn2C)cs1` [Example 46], 2.59^[a].
Same read-out and setting: under `Cn1nnnc1C(=NOCc1csc(/C=C/Cc2ccccc2)n1)c1ccccc1` [Example 88] stands 4.29^[a]; under `COCC#Cc1nc(CON=C(c2ccccc2)c2nnnn2C)cs1` [Example 71], 2.92^[a]; under `COc1cccc(-c2cccc(CON=C(c3ccccc3)c3nnnn3C)n2)c1` [Example 33], 3.89^[a].
With `CCCCCN(C)c1nc(CON=C(c2ccccc2)c2nnnn2C)cs1` [Example 51], the log p is 4.01^[a].
On the same count and under the same terms, as for `CN(Cc1ccccc1)c1nc(CON=C(c2ccccc2)c2nnnn2C)cs1` [Example 48], the figure is 3.89^[a].
On the same count and under the same terms, as for `C#Cc1cccc(CON=C(c2ccccc2)c2nnnn2C)n1` [Example 19], the figure is 2.69^[a];; as for `CCCCOc1cccc(-c2cccc(CON=C(c3ccccc3)c3nnnn3C)n2)c1` [Example 44], 5.2^[a]; as for `CCCCCC/C=C/c1nc(CON=C(c2ccccc2)c2nnnn2C)cs1` [Example 82], 5.53^[a].
Still for that read-out and setting: as for `CCc1ccc(-c2cccc(CON=C(c3ccccc3)c3nnnn3C)n2)cc1` [Example 38], the figure is 4.7^[a]; as for `Cn1nnnc1C(=NOCc1csc(C#Cc2ccccc2)n1)c1ccccc1` [Example 59], 4.16^[a]; as for `Cn1nnnc1C(=NOCc1csc(C#CCC2CCCCC2)n1)c1ccccc1` [Example 67], 5.32^[a].
Turning to `Cn1nnnc1C(=NOCc1cccc(C#CC2CCCC2)n1)c1ccccc1` [Example 29], the log p is 4.34^[a].
On the same count and under the same terms, as for `CN(CCc1ccccc1)c1nc(CON=C(c2ccccc2)c2nnnn2C)cs1` [Example 37], the figure is 3.96^[a]; as for `CC(C)CC#Cc1nc(CON=C(c2ccccc2)c2nnnn2C)cs1` [Example 61], 4.34^[a]; as for `CC(C)[Si](C#Cc1cccc(CON=C(c2ccccc2)c2nnnn2C)n1)(C(C)C)C(C)C` [Example 28], 6.83^[a].
Same read-out and setting: as for `Cn1nnnc1C(=NOCc1cccc(-c2ccc(OC(F)(F)F)cc2)n1)c1ccccc1` [Example 40], the figure is 4.73^[a].
The same measure, in the same setting: under `Cn1nnnc1C(=NOCc1cccc(-c2cccc(Cl)c2)n1)c1ccccc1` [Example 47] stands 4.49^[a]; under `CCCC#Cc1cccc(CON=C(c2ccccc2)c2nnnn2C)n1` [Example 27], 3.83^[a]; under `Cn1nnnc1C(=NOCc1csc(C#CC2CCCC2)n1)c1ccccc1` [Example 69], 4.49^[a].
As to `Cn1nnnc1C(=NOCc1cccc(-c2cc(Cl)cc(Cl)c2)n1)c1ccccc1` [Example 41], the log p was 5.23^[a].

The data set is the same for the next values; noted with them: reversed phase HPLC columns; method [a]: pH 2.3, 0.1% phosphoric acid and acetonitrile as eluent; EEC directive 79/831 Annex V.A8, reversed phase HPLC; read-out: log p.
For `CCCCCCOc1cccc(CON=C(c2ccccc2)c2nnnn2C)n1` [Example 20, N-{[6-(hexyloxy)pyridin-2-yl]methoxy}-1-(1-methyl-1H-tetrazol-5-yl)-1-phenylmethanimine], the chromatographic logP came out at 5.39.
On the same count and under the same terms, as for `CCCCCSc1cccc(CON=C(c2ccccc2)c2nnnn2C)n1` [Example 74, 1-(1-methyl-1H-tetrazol-5-yl)-N-{[6-(pentylsulfanyl)pyridin-2-yl]methoxy}-1-phenylmethanimine], the figure is 5.14.
